Active and inactive are the calls of the source. The calls are words filed in the database; no cut-off is given here.
Assays:
[1] = biological target: T1, Glycogen synthase kinase-3 beta (Homo sapiens, UniProt P49841); details: dose 500.0 nM
Target sequence in this assay (P49841 whole entry, looked up, the tested form may be a part): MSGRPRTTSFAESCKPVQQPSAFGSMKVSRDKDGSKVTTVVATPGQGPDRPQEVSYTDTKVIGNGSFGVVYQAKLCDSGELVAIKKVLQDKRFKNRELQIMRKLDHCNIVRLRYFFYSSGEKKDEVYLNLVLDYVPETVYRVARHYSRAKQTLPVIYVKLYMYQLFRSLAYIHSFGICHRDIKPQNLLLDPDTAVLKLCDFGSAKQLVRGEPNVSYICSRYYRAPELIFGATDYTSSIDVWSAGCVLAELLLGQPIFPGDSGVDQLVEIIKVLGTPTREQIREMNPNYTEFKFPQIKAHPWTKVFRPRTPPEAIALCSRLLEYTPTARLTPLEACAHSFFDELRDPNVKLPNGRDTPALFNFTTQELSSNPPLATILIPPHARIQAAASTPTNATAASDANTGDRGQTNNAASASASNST

[2] = biological target: T2, Dual specificity tyrosine-phosphorylation-regulated kinase 1A (Homo sapiens, UniProt Q13627); experiment: Inhibition of human C-terminal his tagged DYRK1A (26 to 490 residues) transfected in HEK293T cells assessed as inhibition of cyclin D1 phosphorylation at 10 uM incubated for 3 hrs by Western blot analysis; type: cell-based
[3] = biological target: T1, Glycogen synthase kinase-3 beta; experiment: Inhibition human C-terminal his tagged m-Cherry GSK3beta (26 to 383 residues) in HEK293T cells assessed as reversal of ionomycin stimulated NFAT cellular localization at 5 uM incubated for 3 hrs followed by ionomycin stimulation for 1 hr by Hoechst 33258 staining based fluorescence microscopic analysis; type: cell-based; details: time 4.0 hrs
Target sequence in this assay (P49841 whole entry, looked up, the tested form may be a part): as above

[4] = biological target: T1, Glycogen synthase kinase-3 beta; experiment: Inhibition of human C-terminal his tagged GSK3beta (26 to 383 residues) transfected in HEK293T cells assessed as inhibition of cyclin D1 phosphorylation at 10 uM incubated for 3 hrs by Western blot analysis; type: cell-based
Target sequence in this assay (P49841 whole entry, looked up, the tested form may be a part): as above

[5] = biological target: T1, Glycogen synthase kinase-3 beta; experiment: Stabilization of human C-terminal his tagged GSK3beta (26 to 383 residues) expressed in Escherichia coli assessed as change in melting temperature at 10 uM by SYPRO orange dye based thermal shift assay
Target sequence in this assay (P49841 whole entry, looked up, the tested form may be a part): as above

[6] = biological target: T1, Glycogen synthase kinase-3 beta; experiment: Inhibition of human C-terminal his tagged GSK3beta (26 to 383 residues) expressed in Escherichia coli using GYSI(YRRAAVPPSPSLSRHSSPHQ(pS)EDEEE) as peptide substrate incubated for 1 hr in presence of ATP by cook activity assay
Target sequence in this assay (P49841 whole entry, the tested form may be a part): as the sequence (P49841 whole entry, looked up, the tested form may be a part) above

[7] = biological target: T2, Dual specificity tyrosine-phosphorylation-regulated kinase 1A; experiment: Binding affinity to human C-terminal his tagged DYRK1A (26 to 490 residues) expressed in Escherichia coli at 100 uM by radiometric analysis
[8] = biological target: T2, Dual specificity tyrosine-phosphorylation-regulated kinase 1A; experiment: Inhibition of human C-terminal his tagged DYRK1A (26 to 490 residues) expressed in Escherichia coli using DYRKtide (RRRFRPASPLRGPPK) as peptide substrate incubated for 1 hr in presence of ATP by cook activity assay

| inhibition [1] [%] | inhibition [2] | inhibition [3] | inhibition [4] | Activity [7] | IC50 [8] | Structure (SMILES) | Tm [5] | IC50 [6] |
| --- | --- | --- | --- | --- | --- | --- | --- | --- |
| 50 | 100% | Active | 100% | – | – | O=C(O)c1ccc2c(c1)nc(Nc1cccc(Cl)c1)c1ccncc12 | – | – |
| – | Active | Active | Active | inactive | Not Active | O=C1Cc2c([nH]c3ccc(Br)cc23)-c2ncccc2N1 [AZAKENPAULLONE] | – | – |

| Structure (SMILES) | inhibition [1] [%] | inhibition [2] | inhibition [3] | inhibition [4] | Activity [7] | IC50 [8] | Tm [5] | IC50 [6] |
| --- | --- | --- | --- | --- | --- | --- | --- | --- |
| COc1ccc2c(c1)[nH]c1c(C)nccc12 [HARMINE] | – | Active | – | Active | – | – | inactive | Not Active |

— ChEMBL document CHEMBL5247654 (J Med Chem, 2023)
